From patent US10074530B1, “Carbon nanotube anchor for mass spectrometer” (University of South Florida, priority 2008, dated 2018) come the findings set out here.

Structures are written as SMILES.

A short description of one series: Solubility of matrix in acetonitrile/de-ionized water matrix solvent. The series is classed as physicochemical. As to conditions: acetonitrile/de-ionized water 1:1 (v/v), aqueous with cosolvent or surfactant or cyclodextrin, thermodynamic from solid; 1:1 volumetric ratio acetonitrile to de-ionized water; read-out: Matrix concentration that displayed insolubility. The procedure:
To further investigate the sample concentrating properties of CNT anchor spots, experiments were conducted using varying concentration of sample. Solutions were prepared. A solution of 1:1 volumetric ratio of acetonitrile to de-ionized water was prepared as a matrix solvent. Dry crystalline matrix αCHCA was weighed out with a Sartorius Research (Goettingen, Germany) model R200D digital precision balance and combined in a 1.5 mL Eppendorf® Safe-Lock Microcentrifuge tube (Westbury, N.Y.) with sufficient quantity of solution to achieve a matrix concentration varied over three orders of magnitude from 0.006 mg/mL to 6 mg/mL. […] All matrix solutions were prepared freshly and independently of each other in order to reduce possibility of concentration error. The samples were prepared by manually depositing 0.2 μL of solution from pipette to new carbon nanotube enhanced substrates (same parameters as previous experiment). The droplets were allowed to dry in ambient conditions (room temperature 23° C.), and time-lapse images were captured using the optical microscope described previously.
As for `N#CC(=Cc1ccc(O)cc1)C(=O)O` [αCHCA, α-cyano-4-hydroxycinnamic acid], the solubility is above 6000 µg/mL.

The nature of the next series: pH of solute solutions of equivalent molarity. The series is classed as physicochemical. The note with it: solution in 1:1 volumetric ratio acetonitrile to de-ionized water; 1.32 × 10^−6 mol, concentration as in Table 3.
As for `O=C(O)c1ccccc1` [Benzoic acid], the pH was 3.6.

As for `Oc1ccccc1O` [Catechol], the pH is given as 4.5.

Regarding `OCCCCCCCCCCO` [Decanediol, 1,10-Decanediol], the pH was found to be 7.6.

As for `O=C(O)c1ccccc1O` [Salicylic acid], the pH was found to be 2.8.

`N#CC(=Cc1ccc(O)cc1)C(=O)O` [αCHCA, α-cyano-4-hydroxycinnamic acid]: the pH amounted to 2.75.
